Assay results published in ChEMBL document CHEMBL1828601, “Small molecule peptidomimetic inhibitors of importin α/β mediated nuclear transport” (Bioorg Med Chem, 2010).
Activity calls are given as the source filed them. How the calls were made is not given here.

Tested on: FGM
Assay: Inhibition of importin alpha/beta-mediated nuclear transportation of Alexa555-BSA-NLS in human FGM cell nucleus at 500 uM after 30 mins by fluorescence microscopy
Type: cell-based

Structure (SMILES)	inhibition
CC[C@H](C)[C@H](N)C(=O)Nc1ccc(C(=O)N[C@@H](Cc2ccc3ccccc3c2)C(=O)O)cc1OCC(C)C	inactive
CC(C)[C@H](N)C(=O)N1C[C@@H](C(=O)NCCc2c[nH]c3ccccc23)[C@H](C(=O)NCCc2c[nH]c3ccccc23)C1	inactive
NC(=O)C[C@H](N)C(=O)N1C[C@@H](C(=O)NCCc2c[nH]c3ccccc23)[C@H](C(=O)NCCc2c[nH]c3ccccc23)C1	inactive
NCCCC[C@H](N)C(=O)N1C[C@@H](C(=O)NCCc2c[nH]c3ccccc23)[C@H](C(=O)NCCc2c[nH]c3ccccc23)C1	Active
CC(C)C[C@H](N)C(=O)Nc1ccc(C(=O)N[C@@H](CCc2ccccc2)C(=O)O)cc1OCc1ccccc1	Active
N[C@@H](CC(=O)O)C(=O)Nc1ccc(C(=O)N[C@@H](CCc2ccccc2)C(=O)O)cc1OCc1ccccc1	inactive
N[C@@H](Cc1ccccc1)C(=O)Nc1ccc(C(=O)N[C@@H](CCc2ccccc2)C(=O)O)cc1OCc1ccccc1	Active
CC(C)COc1cc(C(=O)N[C@@H](Cc2ccc3ccccc3c2)C(=O)O)ccc1NC(=O)[C@H](C)N	Active
CC(C)COc1cc(C(=O)N[C@@H](Cc2ccc3ccccc3c2)C(=O)O)ccc1NC(=O)[C@@H](N)Cc1c[nH]cn1	inactive
CC(C)COc1cc(C(=O)N[C@@H](Cc2ccc3ccccc3c2)C(=O)O)ccc1NC(=O)[C@@H](N)Cc1ccccc1	Active
N[C@@H](CCc1ccccc1)C(=O)N1C[C@@H](C(=O)NCCc2c[nH]c3ccccc23)[C@H](C(=O)NCCc2c[nH]c3ccccc23)C1	inactive
N[C@@H](CO)C(=O)N1C[C@@H](C(=O)NCCc2c[nH]c3ccccc23)[C@H](C(=O)NCCc2c[nH]c3ccccc23)C1	inactive
CSCC[C@H](N)C(=O)N1C[C@@H](C(=O)NCCc2c[nH]c3ccccc23)[C@H](C(=O)NCCc2c[nH]c3ccccc23)C1	inactive
CC[C@H](C)[C@H](N)C(=O)N1C[C@@H](C(=O)NCCc2c[nH]c3ccccc23)[C@H](C(=O)NCCc2c[nH]c3ccccc23)C1	inactive
CC(C)COc1cc(C(=O)N[C@@H](Cc2ccc3ccccc3c2)C(=O)O)ccc1NC(=O)[C@@H](N)[C@@H](C)O	inactive
N[C@@H](Cc1ccccc1)C(=O)N1C[C@@H](C(=O)NCCc2c[nH]c3ccccc23)[C@H](C(=O)NCCc2c[nH]c3ccccc23)C1	inactive
N[C@@H](Cc1c[nH]c2ccccc12)C(=O)Nc1ccc(C(=O)N[C@@H](CCc2ccccc2)C(=O)O)cc1OCc1ccccc1	inactive
CC(C)C[C@H](N)C(=O)N1C[C@@H](C(=O)NCCc2c[nH]c3ccccc23)[C@H](C(=O)NCCc2c[nH]c3ccccc23)C1	inactive
CC(C)COc1cc(C(=O)N[C@@H](Cc2ccc3ccccc3c2)C(=O)O)ccc1NC(=O)[C@@H](N)Cc1c[nH]c2ccccc12	inactive
N[C@@H](Cc1c[nH]c2ccccc12)C(=O)N1C[C@@H](C(=O)NCCc2c[nH]c3ccccc23)[C@H](C(=O)NCCc2c[nH]c3ccccc23)C1	inactive
N[C@@H](CO)C(=O)Nc1ccc(C(=O)N[C@@H](CCc2ccccc2)C(=O)O)cc1OCc1ccccc1	Active
CC(C)COc1cc(C(=O)N[C@@H](Cc2ccc3ccccc3c2)C(=O)O)ccc1NC(=O)[C@@H](N)Cc1ccc(O)cc1	Active
CC(C)COc1cc(C(=O)N[C@@H](Cc2ccc3ccccc3c2)C(=O)O)ccc1NC(=O)[C@@H](N)C(C)C	inactive
CC(C)COc1cc(C(=O)N[C@@H](Cc2ccc3ccccc3c2)C(=O)O)ccc1NC(=O)[C@@H](N)CC(C)C	inactive

Structure (SMILES)	inhibition
C[C@@H](O)[C@H](N)C(=O)Nc1ccc(C(=O)N[C@@H](CCc2ccccc2)C(=O)O)cc1OCc1ccccc1	Active
N[C@@H](CC(=O)O)C(=O)N1C[C@@H](C(=O)NCCc2c[nH]c3ccccc23)[C@H](C(=O)NCCc2c[nH]c3ccccc23)C1	inactive
CC(C)COc1cc(C(=O)N[C@@H](Cc2ccc3ccccc3c2)C(=O)O)ccc1NC(=O)[C@@H](N)CC(=O)O	inactive
CSCC[C@H](N)C(=O)Nc1ccc(C(=O)N[C@@H](Cc2ccc3ccccc3c2)C(=O)O)cc1OCC(C)C	inactive
N[C@@H](Cc1ccc2ccccc2c1)C(=O)N1C[C@@H](C(=O)NCCc2c[nH]c3ccccc23)[C@H](C(=O)NCCc2c[nH]c3ccccc23)C1	inactive
CC(C)COc1cc(C(=O)N[C@@H](Cc2ccc3ccccc3c2)C(=O)O)ccc1NC(=O)[C@@H](N)CO	inactive
CC(C)COc1cc(C(=O)N[C@@H](Cc2ccc3ccccc3c2)C(=O)O)ccc1NC(=O)[C@@H](N)CCCCN	inactive
COc1ccc(C[C@H](N)C(=O)Nc2ccc(C(=O)N[C@@H](CCc3ccccc3)C(=O)O)cc2OCc2ccccc2)cc1	inactive
COc1ccc(C[C@H](N)C(=O)N2C[C@@H](C(=O)NCCc3c[nH]c4ccccc34)[C@H](C(=O)NCCc3c[nH]c4ccccc34)C2)cc1	inactive
N[C@@H](Cc1ccc(O)cc1)C(=O)Nc1ccc(C(=O)N[C@@H](CCc2ccccc2)C(=O)O)cc1OCc1ccccc1	Active
N[C@@H](Cc1ccc(Cl)cc1)C(=O)N1C[C@@H](C(=O)NCCc2c[nH]c3ccccc23)[C@H](C(=O)NCCc2c[nH]c3ccccc23)C1	inactive
N[C@@H](CCc1ccccc1)C(=O)Nc1ccc(C(=O)N[C@@H](CCc2ccccc2)C(=O)O)cc1OCc1ccccc1	Active
N[C@@H](Cc1c[nH]cn1)C(=O)Nc1ccc(C(=O)N[C@@H](CCc2ccccc2)C(=O)O)cc1OCc1ccccc1	inactive
CC(C)COc1cc(C(=O)N[C@@H](Cc2ccc3ccccc3c2)C(=O)O)ccc1NC(=O)[C@@H](N)CC(N)=O	inactive
NCCCC[C@H](N)C(=O)Nc1ccc(C(=O)N[C@@H](CCc2ccccc2)C(=O)O)cc1OCc1ccccc1	Active
C[C@H](N)C(=O)Nc1ccc(C(=O)N[C@@H](CCc2ccccc2)C(=O)O)cc1OCc1ccccc1	inactive
C[C@H](N)C(=O)N1C[C@@H](C(=O)NCCc2c[nH]c3ccccc23)[C@H](C(=O)NCCc2c[nH]c3ccccc23)C1	inactive
NC(=O)C[C@H](N)C(=O)Nc1ccc(C(=O)N[C@@H](CCc2ccccc2)C(=O)O)cc1OCc1ccccc1	inactive
CC(C)COc1cc(C(=O)N[C@@H](Cc2ccc3ccccc3c2)C(=O)O)ccc1NC(=O)[C@@H](N)Cc1ccc2ccccc2c1	inactive
CC(C)[C@H](N)C(=O)Nc1ccc(C(=O)N[C@@H](CCc2ccccc2)C(=O)O)cc1OCc1ccccc1	Active
CSCC[C@H](N)C(=O)Nc1ccc(C(=O)N[C@@H](CCc2ccccc2)C(=O)O)cc1OCc1ccccc1	Active
N[C@@H](CCc1ccc(O)cc1)C(=O)N1C[C@@H](C(=O)NCCc2c[nH]c3ccccc23)[C@H](C(=O)NCCc2c[nH]c3ccccc23)C1	inactive
CC(C)COc1cc(C(=O)N[C@@H](Cc2ccc3ccccc3c2)C(=O)O)ccc1NC(=O)[C@@H](N)Cc1ccc(Cl)cc1	inactive
C[C@@H](O)[C@H](N)C(=O)N1C[C@@H](C(=O)NCCc2c[nH]c3ccccc23)[C@H](C(=O)NCCc2c[nH]c3ccccc23)C1	inactive
